Data set [1] can be described thus: Aqueous solubility (SiriusT3). It is filed as physicochemical. As to the method: vehicle were seeded in the upper compartment. The two compartments were separated by 5 µm pre-size polycarbonate filter (polyvinylpyrrolidone-free for PMN chemotaxis). The chamber was […]
Physicochemical characterization […]
and a turbidity-sensing device. […]
water/HBSS to a final concentration of 10 μM. Cell membrane homogenates (48 μg protein) were […]

Data set [2] can be described thus: Metabolic stability, human. It is filed as in vitro ADME. Particulars: Test conc: 2.5 µM. An excerpt: (§1) Table 1 Physicochemical and in Vitro ADME Properties of DF2726A. | column: DF2726A
For data set [3], the target named is CYP 1A2 (Homo sapiens, UniProt P05177). It is filed as in vitro ADME.
CYP 1A2 (Homo sapiens, UniProt P05177), sequence (P05177 whole entry): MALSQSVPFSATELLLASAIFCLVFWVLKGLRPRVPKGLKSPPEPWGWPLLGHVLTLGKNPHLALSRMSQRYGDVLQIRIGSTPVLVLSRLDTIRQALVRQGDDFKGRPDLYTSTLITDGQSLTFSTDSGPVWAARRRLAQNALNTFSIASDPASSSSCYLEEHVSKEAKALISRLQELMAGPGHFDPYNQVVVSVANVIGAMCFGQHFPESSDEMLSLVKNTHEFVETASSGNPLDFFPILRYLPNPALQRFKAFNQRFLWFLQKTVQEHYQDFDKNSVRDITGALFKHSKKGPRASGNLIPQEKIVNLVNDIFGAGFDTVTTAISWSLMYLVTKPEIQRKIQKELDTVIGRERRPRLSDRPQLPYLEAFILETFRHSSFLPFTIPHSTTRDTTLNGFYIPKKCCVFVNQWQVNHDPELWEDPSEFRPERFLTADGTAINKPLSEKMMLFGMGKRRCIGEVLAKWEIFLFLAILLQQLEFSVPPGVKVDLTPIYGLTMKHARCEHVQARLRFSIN
Description: as §1

Data set [4] has as its system CYP 1A2. It is filed as in vitro ADME.
Description: as §1

For another data set, the target named is T1, human COX1 (Homo sapiens, UniProt P23219).
T1 construct: host or cells: Sf-9
T1 sequence (P23219 24-599): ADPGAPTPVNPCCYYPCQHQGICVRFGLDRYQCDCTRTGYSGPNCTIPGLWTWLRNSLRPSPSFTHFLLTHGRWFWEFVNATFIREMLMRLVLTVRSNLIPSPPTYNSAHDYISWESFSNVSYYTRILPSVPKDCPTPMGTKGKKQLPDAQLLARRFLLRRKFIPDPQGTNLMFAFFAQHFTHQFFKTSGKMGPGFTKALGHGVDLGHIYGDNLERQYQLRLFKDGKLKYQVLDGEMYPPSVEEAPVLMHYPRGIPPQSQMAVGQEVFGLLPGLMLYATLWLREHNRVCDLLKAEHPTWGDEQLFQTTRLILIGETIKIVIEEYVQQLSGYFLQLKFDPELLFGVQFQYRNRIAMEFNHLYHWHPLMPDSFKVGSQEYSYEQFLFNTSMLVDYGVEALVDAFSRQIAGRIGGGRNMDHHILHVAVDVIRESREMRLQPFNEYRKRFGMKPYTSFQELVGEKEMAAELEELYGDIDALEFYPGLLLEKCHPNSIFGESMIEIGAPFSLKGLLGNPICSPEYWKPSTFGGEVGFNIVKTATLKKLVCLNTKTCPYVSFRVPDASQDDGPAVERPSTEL
Nature of the data set: COX1 assay, PGE2 formation from arachidonic acid, recombinant enzyme. It is filed as biochemical. As to the method:
Protein binding in human, dog and rat plasma […]
in DMSO at a final concentration of 2 mM. […]
plasma to obtain a final concentration of 10 µM. Human, dog and rat plasma (200 µL) in triplicate […]
vials for LC-MS/MS analysis. […]
mM Tris-HCl (pH 8.0), 1.98 mM phenol and 1.02 µM hematine. Thereafter, the reaction was initiated by adding 4 µM (COX1) or 2 µM (COX2) of arachidonic acid and the mixture was incubated for 5 min at RT. For basal control measurements, arachidonic acid was omitted from the reaction mixture. Following incubation, t he reaction was stopped by the addition of 1 M HCl then 1 M Tris/HCl (pH 8.0) followed by cooling to 4°C.
The fluorescence acceptor (d2 labeled PGE2) and the fluorescence donor (anti -PGE2 antibody labeled with europium Cryptate) were then added. After 120 min, the fluorescence transfer corresponding to the amount of residual PGE2 was measured at λex=337 nm, λem=620 nm and λem=665 nm using a microplate reader (Envision, Perkin Elmer). The enzyme activity was determined by dividing the signal measured at 665 nm by that measured at 620 nm (ratio). The results were expressed as a percent age inhibition of the control enzyme activity. The standard inhibitory reference compound was Diclofenac, which was tested in each experiment at several concentrations to obtain an inhibition curve from which its IC50 value was calculated. […]

Another data set concerns acetylated α-tubulin. The experiment in a line: Acetylated α-tubulin in F11-derived neurons (immunofluorescence, western blotting). The note with it: 24 h. It is filed as cell-based. On the technique in general: Immunoblotting shows a protein as a band on a membrane.
Another data set has as its system PI3K and p-Akt. Nature of the data set: PI3K and p-Akt western blotting in F11-derived neurons. It is filed as cell-based. Particulars: DF2726A 1 µM + oxaliplatin 20 µM, 24 h. The protocol:
Following neuronal differentiation, neurons were treated for 24 h with DF2726A (1 μM final concentration), oxaliplatin (Sigma-Aldrich; 20 µM final concentration), or the combination of the two molecules.
Control and treated cells were collected and lysed in ice-cold RIPA buffer (PBS pH 7.4 containing 0.5% sodium deoxycolate, 1% Igepal, 0.1% SDS, 5 mM EDTA, 1% protease and phosphatase inhibitor cocktails; Sigma-Aldrich) as described in[22],[33]. Protein lysates (30 μg) were separated on 8–12% SDS-polyacrilamide gel and electroblotted onto polyvinyldifluoride membrane (PVDF; Sigma-Aldrich). Nonspecific binding sites were blocked by 5% non-fat dry milk (Bio-Rad Laboratories, Hercules, CA, USA) in Tris buffered saline (TBS: 20 mM Tris- HCl, pH 7.4, containing 150 mM NaCl) for 30 min at RT. […] The relative densities of immunoreactive bands were determined and normalized HRP-conjugated β-actin, using ImageJ software. […]

From PMC6692352, “DF2726A, a new IL-8 signalling inhibitor, is able to counteract chemotherapy-induced neuropathic pain” (Scientific Reports, 2019) come the findings set out here.

“Also recorded” adds a separate entry of the source. Bounds are passed on as bounds.

The term IC50 denotes the concentration that inhibits the measured activity by half. Low readings indicate higher potency, high ones lower potency. `CC(C)(C(=O)O)c1ccc(Nc2nc(C(F)(F)F)cs2)cc1` [DF2726A] had an Acqueous solubility in data set [1] above 30 mg/mL. Also, the Metabolic stability human in data set [2] is listed as 7.0 µL/min/10^6 cells. In addition, the IC50 on CYP 1A2 [3] was above 30 µM; in the data set with CYP 1A2 [4] it was above 100 µM. Further, the “COX 1 Inhibition (50 µM)” value at human COX1 is “did not inhibit; also recorded: No Inhibition observed”. Moreover, in the data set on acetylated α-tubulin (1 µM, immunofluorescence), the “Acetylated α-tubulin in neurons treated with DF2726A alone” value is listed as “moderately present”. Also, the “Acetylated α-tubulin in oxaliplatin-treated neurons, combination with DF2726A” value with acetylated α-tubulin (DF2726A 1 µM + oxaliplatin 20 µM) is “counteracts chemotherapy-mediated effects; also recorded: comparable to that of control cells”. For the same compound, the “Acetylated α-tubulin in paclitaxel-treated neurons, combination with DF2726A” value in the data set with acetylated α-tubulin (DF2726A + paclitaxel 10 nM) was “The same effect was observed; also recorded: comparable to that of control cells”. In addition, the “PI3K and p-Akt protein levels, oxaliplatin-treated neurons” value in the data set with PI3K and p-Akt is reported as “comparable to those of control cells”.
